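Five compound concentrations were applied to cells in 96-well plates for 48 hours; endpoints were derived by simple linear interpolation of the resulting dose-response curve. TGI is the concentration that stops growth completely.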 A value given as a limit tells only on which side of the number the result lay.

Among the test systems are HT29 colon; COLO 205 colon; MALME-3M melanoma; OVCAR-3 ovarian; SF-268 CNS; SF-539 CNS; M14 melanoma; RXF 393 renal; HOP-62 NSCLC; EKVX NSCLC; HCT-116 colon; 786-0 renal; SK-MEL-28 melanoma; MDA-N; SW-620 colon; K-562 leukemia; U251 CNS.
What all share (experiment): growth of human tumour cells (NCI), 48 h

Take `C(=C\c1nccs1)/c1cccc(/C=C/c2nccs2)n1`: the TGI in the experiment with HT29 colon, with COLO 205 colon, in the experiment on MALME-3M melanoma, in the experiment on OVCAR-3 ovarian, in the experiment with SF-268 CNS and in the experiment on SF-539 CNS was greater than 50 µM throughout. The TGI in the experiment on M14 melanoma, with RXF 393 renal, in the experiment with HOP-62 NSCLC, with EKVX NSCLC, in the experiment on HCT-116 colon and in the experiment on 786-0 renal was greater than 50 µM in each case. Further, the TGI with SK-MEL-28 melanoma, with MDA-N, in the experiment on SW-620 colon, in the experiment on K-562 leukemia and in the experiment with U251 CNS was greater than 50 µM each time.

Take `Cc1cc(C)nc(NC(=S)Nc2ccccc2Cl)c1`: the TGI in the experiment with HT29 colon, with COLO 205 colon, in the experiment on MALME-3M melanoma, in the experiment on OVCAR-3 ovarian, in the experiment with SF-268 CNS and in the experiment with SF-539 CNS was greater than 100 µM throughout. Moreover, the TGI in the experiment with M14 melanoma, with RXF 393 renal, with HOP-62 NSCLC, with EKVX NSCLC, with HCT-116 colon and with 786-0 renal was greater than 100 µM each time. In addition, the TGI with SK-MEL-28 melanoma, in the experiment on MDA-N, in the experiment with SW-620 colon, in the experiment with K-562 leukemia and in the experiment with U251 CNS was greater than 100 µM throughout.

For the compound `COc1ccc2oc(=O)cc(C)c2c1`, the TGI with HT29 colon, with COLO 205 colon, with MALME-3M melanoma, in the experiment on OVCAR-3 ovarian, in the experiment on SF-268 CNS and in the experiment with SF-539 CNS was greater than 100 µM each time. The TGI in the experiment on M14 melanoma, in the experiment on RXF 393 renal, in the experiment on HOP-62 NSCLC, with EKVX NSCLC, with HCT-116 colon and with 786-0 renal was greater than 100 µM throughout. Further, the TGI in the experiment with SK-MEL-28 melanoma, with MDA-N, in the experiment with SW-620 colon, with K-562 leukemia and in the experiment on U251 CNS was greater than 100 µM each time.

For `CCOC(=O)c1cc(C2CCN(CC(C)CC)C2=S)c(-c2cc(C)no2)[nH]1` (stereo not given), the TGI in the experiment with HT29 colon, with COLO 205 colon, in the experiment on MALME-3M melanoma, with OVCAR-3 ovarian, in the experiment with SF-268 CNS and in the experiment with SF-539 CNS was greater than 100 µM throughout. The TGI in the experiment with M14 melanoma, in the experiment with RXF 393 renal, with HOP-62 NSCLC, in the experiment on EKVX NSCLC, in the experiment on HCT-116 colon and in the experiment on 786-0 renal was greater than 100 µM in each case. Besides, the TGI in the experiment with SK-MEL-28 melanoma, with MDA-N, in the experiment on SW-620 colon, in the experiment with K-562 leukemia and in the experiment with U251 CNS was greater than 100 µM in each case.

For `C=CCOC1=C(OCC=C)C(C2COC(C)(C)O2)OC1=O` (stereo not given), the TGI in the experiment with HT29 colon, in the experiment with COLO 205 colon, with MALME-3M melanoma, with OVCAR-3 ovarian, with SF-268 CNS and in the experiment on SF-539 CNS was greater than 100 µM each time. For the same compound, the TGI in the experiment with M14 melanoma, in the experiment with RXF 393 renal, in the experiment with HOP-62 NSCLC, in the experiment with EKVX NSCLC, with HCT-116 colon and in the experiment with 786-0 renal was greater than 100 µM in each case. Besides, the TGI in the experiment with SK-MEL-28 melanoma, in the experiment with MDA-N, with SW-620 colon, in the experiment on K-562 leukemia and in the experiment with U251 CNS was greater than 100 µM each time.
